Measured values taken from patent publication US20240368121A1, “ESTROGEN RECEPTOR DEGRADERS, PHARMACEUTICAL COMPOSITIONS THEREOF, AND THEIR THERAPEUTIC APPLICATIONS” (BioTheryX, Inc., priority 2021, published 2024).

Assays:
[1] = test system: MCF7 cells; test: Cell viability assay ([…]-GLO, 6-day treatment); assay type: cell-based; conditions: Homo sapiens, MCF7, 144 h; MCF-7 cells, 6 days, CTG; read-out: Inhibition of Cancerous Cells IC50 MCF-7
Description: A compound provided herein was evaluated for its anticancer activity in MCF7 and T47D cells. MCF7 and T47D cells were cultured at 37° C. in a humidified 5% C02 environment in MEM or RPMI, supplemented with 10% FBS with insulin, respectively. The cells were plated in 384-well microplates at a density of 1,000 cells per well in their respective maintenance media. The cells were treated with the compound by a 10-point dose response curve for 6 days, during which, the medium and compound were refreshed once. After the 6-day treatment, the cell viability was assessed using […]-GLO (CTG) reagent. Luminescence was measured with a microplate reader.

[2] = target: T1, ERα (Homo sapiens, UniProt P03372); test: Protein degradation assay: ERα in MCF-7 cells via western blot; assay type: cell-based; conditions: 6 h; for ERα Protein Degradation 1 nM: 1 nM compound; for ERα Protein Degradation 10 nM: 10 nM compound; for ERα Protein Degradation 100 nM: 100 nM compound
T1 construct: degrading an ERα in MCF-7 cells via a western blot; endogenous in cells; host or cells: MCF-7
T1 sequence (P03372 1-595): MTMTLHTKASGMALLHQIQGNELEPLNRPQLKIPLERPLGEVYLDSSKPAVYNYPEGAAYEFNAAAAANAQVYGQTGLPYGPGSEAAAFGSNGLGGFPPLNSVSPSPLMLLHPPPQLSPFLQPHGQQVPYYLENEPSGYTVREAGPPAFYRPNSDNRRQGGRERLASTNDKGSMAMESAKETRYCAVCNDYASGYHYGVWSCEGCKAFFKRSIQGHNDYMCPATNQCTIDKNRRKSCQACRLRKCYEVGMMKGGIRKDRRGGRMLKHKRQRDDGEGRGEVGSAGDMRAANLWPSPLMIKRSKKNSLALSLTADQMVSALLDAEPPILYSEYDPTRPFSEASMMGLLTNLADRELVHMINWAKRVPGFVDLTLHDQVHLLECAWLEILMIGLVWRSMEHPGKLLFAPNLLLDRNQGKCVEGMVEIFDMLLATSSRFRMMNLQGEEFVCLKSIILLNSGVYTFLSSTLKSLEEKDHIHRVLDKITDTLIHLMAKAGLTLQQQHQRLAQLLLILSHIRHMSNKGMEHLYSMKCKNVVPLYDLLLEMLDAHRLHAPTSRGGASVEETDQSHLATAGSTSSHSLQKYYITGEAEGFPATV
Description: A compound provided herein was assessed for its activity in degrading an ERα in MCF-7 cells via a western blot. The MCF7 cells were cultured at 37° C. in a humidified 5% C02 environment in MEM supplemented with 10% FBS with insulin. The cells were seeded in 12-well plates at a density of 300,000 cells per well in maintenance media. Cells were treated with the compound at predetermined concentrations (e.g., 1 nM, 10 nM, 100 nM, and 1 μM) for 6 h. The cells were then washed in PBS and the whole cells were lysed in a cell lysis buffer and incubated for 15 minutes on ice. Cell debris was removed by high-speed centrifugation and the cleared whole cell lysates were prepared for further analysis by a western blot. The whole cell protein extracts were separated on SDS-polyacrylamide gels, transferred to nitrocellulose membranes, and probed with primary antibodies, including anti-ERα antibody and GAPDH antibody for loading control. The membranes were subsequently washed and probed with secondary antibodies for chemiluminescence, followed by imaging on a BIORAD CHEMIDOC Imaging System. The results are summarized in Table 2, where “A” represents a percentage degradation value of no less than 50%; “B” represents a percentage degradation value of less than 50% and no less than 25%; “C” represents a percentage degradation value of less than 25% and no less than 10%; and “D” represents a percentage degradation value of less than 10%.

Row | IC50 [1] [nM] | Compound | ERα Protein Degradation 1 nM [2] | ERα Protein Degradation 10 nM [2] | ERα Protein Degradation 100 nM [2]
1 | 0.8 | Cc1c(-c2ccc(O)cc2)n(Cc2ccc(N3CCC(CN4CCN(c5ccc6c(C7CCC(=O)NC7=O)nn(C)c6c5)CC4)CC3)cc2)c2ccc(O)cc12 (stereo not shown) [Compound E17, 3-(6-(4-((1-(4-((5-Hydroxy-2-(4-hydroxyphenyl)-3-methyl-1H-indol-1-yl)-methyl)phenyl)piperidin-4-yl)methyl)piperazin-1-yl)-1-methyl-1H-indazol-3-yl)piperidine-2,6-dione] | – | – | –
2 | 1160 | O=C1CCC(N2Cc3c(csc3COc3ccc(CNCCCCCOc4ccc([C@@H]5c6ccc(O)cc6CC[C@@H]5c5ccccc5)cc4)cc3)C2=O)C(=O)N1 (stereo in doubt) [Compound A17, 3-(1-((4-(((5-(4-((1R,2S)-6-Hydroxy-2-phenyl-1,2,3,4-tetrahydronaphthalen-1-yl)phenoxy)pentyl)amino)methyl)phenoxy)methyl)-4-oxo-4H-thieno[3,4-c]pyrrol-5(6H)-yl)piperidine-2,6-dione] | B (a percentage degradation value of less than 50% and no less than 25%) | C (a percentage degradation value of less than 25% and no less than 10%) | D (a percentage degradation value of less than 10%)
3 | 0.13 | Cn1nc([C@H]2CCC(=O)NC2=O)c2ccc(OCC(=O)N3CCN(CCCCOc4ccc([C@@H]5c6ccc(O)cc6CC[C@@H]5c5ccccc5)cc4)CC3)cc21 [Compound B26, (R)-3-(6-(2-(4-(4-(4-((1R,2S)-6-Hydroxy-2-phenyl-1,2,3,4-tetrahydronaphthalen-1-yl)phenoxy)butyl)piperazin-1-yl)-2-oxoethoxy)-1-methyl-1H-indazol-3-yl)piperidine-2,6-dione] | – | – | –
4 | 0.05 | O=C1CCC(N2Cc3sc(C4CCN(CCCCOc5ccc([C@@H]6c7ccc(O)cc7CC[C@@H]6c6ccccc6)cc5)CC4)cc3C2=O)C(=O)N1 (stereo partly drawn) [Compound A20, 3-(2-(1-(4-(4-((1R,2S)-6-Hydroxy-2-phenyl-1,2,3,4-tetrahydronaphthalen-1-yl)-phenoxy)butyl)piperidin-4-yl)-4-oxo-4,6-dihydro-5H-thieno[2,3-c]pyrrol-5-yl)piperidine-2,6-dione] | D (a percentage degradation value of less than 10%) | D (a percentage degradation value of less than 10%) | D (a percentage degradation value of less than 10%)
5 | 0.28 | O=C1CCC(N2Cc3c(csc3C3CCN(CCCCCCOc4ccc([C@@H]5c6ccc(O)cc6CC[C@@H]5c5ccccc5)cc4)CC3)C2=O)C(=O)N1 (stereo partly drawn) [Compound A18, 3-(1-(1-(6-(4-((1R,2S)-6-Hydroxy-2-phenyl-1,2,3,4-tetrahydronaphthalen-1-yl)-phenoxy)hexyl)piperidin-4-yl)-4-oxo-4H-thieno[3,4-c]pyrrol-5(6H)-yl)piperidine-2,6-dione] | – | – | –
6 | 0.27 | Cc1c(-c2ccc(O)cc2)n(Cc2ccc(N3CCC(CN4CCN(C(=O)COc5ccc6c(C7CCC(=O)NC7=O)nn(C)c6c5)CC4)CC3)cc2)c2ccc(O)cc12 (stereo not shown) [Compound E15, 3-(6-(2-(4-((1-(4-((5-hydroxy-2-(4-hydroxyphenyl)-3-methyl-1H-indol-1-yl)-methyl)phenyl)piperidin-4-yl)methyl)piperazin-1-yl)-2-oxoethoxy)-1-methyl-1H-indazol-3-yl)-piperidine-2,6-dione] | – | – | –
7 | 0.36 | Cc1c(-c2ccc(O)cc2)n(Cc2ccc(N3CCC(CCN4CCN(c5ccc6c(C7CCC(=O)NC7=O)nn(C)c6c5)CC4)CC3)cc2)c2ccc(O)cc12 (stereo not shown) [Compound E18, 3-(6-(4-(2-(1-(4-((5-Hydroxy-2-(4-hydroxyphenyl)-3-methyl-1H-indol-1-yl)-methyl)phenyl)piperidin-4-yl)ethyl)piperazin-1-yl)-1-methyl-1H-indazol-3-yl)piperidine-2,6-dione] | – | – | –

Continued, compound first:

Row | Compound | IC50 [1] [nM] | ERα Protein Degradation 1 nM [2] | ERα Protein Degradation 10 nM [2] | ERα Protein Degradation 100 nM [2]
8 | CC1(Cc2ccc(OCCCCN3CCN(C(=O)COc4ccc(N5CCC(=O)NC5=O)cc4)CC3)cc2)C(c2ccc(O)cc2)=Nc2ccc(O)cc21 (stereo not shown) [Compound D9, 1-(4-(2-(4-(4-(4-((5-Hydroxy-2-(4-hydroxyphenyl)-3-methyl-3H-indol-3-yl)-methyl)phenoxy)butyl)piperazin-1-yl)-2-oxoethoxy)phenyl)dihydropyrimidine-2,4(1H,3H)-dione] | – | D (a percentage degradation value of less than 10%) | D (a percentage degradation value of less than 10%) | D (a percentage degradation value of less than 10%)
9 | O=C1CCC(N2Cc3c(cc(F)cc3C3CCN(CCCCOc4ccc([C@H]5c6ccc(O)cc6CC[C@H]5c5ccccc5)cc4)CC3)C2=O)C(=O)N1 (stereo partly drawn) [Compound A12, 3-(6-Fluoro-4-(1-(4-(4-((1S,2R)-6-hydroxy-2-phenyl-1,2,3,4-tetrahydro-naphthalen-1-yl)phenoxy)butyl)piperidin-4-yl)-1-oxoisoindolin-2-yl)piperidine-2,6-dione] | – | C (a percentage degradation value of less than 25% and no less than 10%) | C (a percentage degradation value of less than 25% and no less than 10%) | C (a percentage degradation value of less than 25% and no less than 10%)
10 | O=C1CCC(N2Cc3cc(C4CCN(CCCCOc5ccc([C@H]6c7ccc(O)cc7CC[C@H]6c6ccccc6)cc5)CC4)c(F)cc3C2=O)C(=O)N1 (stereo partly drawn) [Compound A13, 3-(6-Fluoro-5-(1-(4-(4-((1S,2R)-6-hydroxy-2-phenyl-1,2,3,4-tetrahydro-naphthalen-1-yl)phenoxy)butyl)piperidin-4-yl)-1-oxoisoindolin-2-yl)piperidine-2,6-dione] | – | C (a percentage degradation value of less than 25% and no less than 10%) | B (a percentage degradation value of less than 50% and no less than 25%) | C (a percentage degradation value of less than 25% and no less than 10%)
11 | CC1(Cc2ccc(OCCCCN3CCN(c4ccc5c(c4)CN(C4CCC(=O)NC4=O)C5=O)CC3)cc2)C(c2ccc(O)cc2)=Nc2ccc(O)cc21 (stereo not shown) [Compound D2, 3-(5-(4-(4-(4-((5-Hydroxy-2-(4-hydroxyphenyl)-3-methyl-3H-indol-3-yl)-methyl)phenoxy)butyl)piperazin-1-yl)-1-oxoisoindolin-2-yl)piperidine-2,6-dione] | – | D (a percentage degradation value of less than 10%) | D (a percentage degradation value of less than 10%) | D (a percentage degradation value of less than 10%)
12 | CC1(Cc2ccc(OCCCCN3CCN(C(=O)COc4cccc5c4CN(C4CCC(=O)NC4=O)C5=O)CC3)cc2)C(c2ccc(O)cc2)=Nc2ccc(O)cc21 (stereo not shown) [Compound D1, 3-(4-(2-(4-(4-(4-((5-hydroxy-2-(4-hydroxyphenyl)-3-methyl-3H-indol-3-yl)-methyl)phenoxy)butyl)piperazin-1-yl)-2-oxoethoxy)-1-oxoisoindolin-2-yl)piperidine-2,6-dione] | – | D (a percentage degradation value of less than 10%) | D (a percentage degradation value of less than 10%) | D (a percentage degradation value of less than 10%)
